Laboratory results: patent publication US20120183536A1, “METHODS OF USING CORTICOTROPIN-RELEASING FACTOR FOR THE TREATMENT OF CANCER” (priority 2009, published 2012)
Where two headings read alike, the source gives them in different places.

Columns and labels:
U87 Fluc brain tumor = system: U87 Fluc brain tumor
From the text: The results were obtained with SCID mice bearing brain tumors produced by injection with the human glioblastoma cell line U87 Flue. The U87 Flue cell line was created by stably transducing U87 cells with a lentiviral construct containing the luc gene.

[1] = system: human Non-Small Cell Lung Carcinoma (NSCLC) tumor cell lines; experiment: human Non-Small Cell Lung Carcinoma xenograft in nu/nu mice, tumor volume; assay type: in vivo
Method: In a second study, 8-12 week old female nu/nu mice were injected with 1 mm^3 tumor fragments of human Non-Small Cell Lung Carcinoma (NSCLC) tumor cell lines subcutaneously. Once tumors developed and reached an average size of 80-120 mg, mice received administration of: (1) saline (control) (twice daily, subcutaneous); (2) CRF (100 μg/kg) (twice daily, subcutaneous); (3) CRF (200 μg/kg) (twice daily, subcutaneous); (4) bevacizumab (Avastin®) (5 mg/kg) (twice weekly, intraperitoneal); or (5) CRF (200 μg/kg) (twice daily, subcutaneous) and bevacizumab (Avastin®) (5 mg/kg) (twice weekly, intraperitoneal) (FIG. 12A). Body weight and tumor volume were measured twice a week until the endpoint of the experiment, i.e., the earlier of either 60 days or achieving a tumor weight of 2 g.).

[2] = system: Colo205 human colon tumor cells; experiment: Colo205 human colon tumor xenograft in nu/nu mice, tumor volume; assay type: in vivo
Method: In one study, 8-12 week old female nu/nu mice were injected with 1×10^6 Colo205 human colon tumor cells subcutaneously. Once tumors developed and reached an average size of 100-150 mg, mice received administration of: (1) saline (control) (twice daily, subcutaneous); (2) CRF (100 μg/kg) (twice daily, subcutaneous); (3) CRF (200 μg/kg) (twice daily, subcutaneous); (4) bevacizumab (Avastin®) (5 mg/kg) (twice weekly, intraperitoneal); or (5) CRF (200 μg/kg) (twice daily, subcutaneous) and bevacizumab (Avastin®) (5 mg/kg) (twice weekly, intraperitoneal) (FIG. 11A). Body weight and tumor volume were measured twice a week until the endpoint of the experiment, i.e., the earlier of either 60 days or a tumor volume of 1000 mm^3.

[3] = system: MX-1 human breast carcinoma; experiment: MX-1 human breast carcinoma xenograft in nu/nu mice, tumor volume; assay type: in vivo
Method: In another study, 8-12 week old female nu/nu mice were injected with 1 mm^3 tumor fragments of MX-1 human breast carcinoma subcutaneously. Once tumors developed and reached an average size of 80-120 mg, mice received administration of: (1) saline (control) (twice daily, subcutaneous); (2) CRF (100 μg/kg) (twice daily, subcutaneous); (3) CRF (200 μg/kg) (twice daily, subcutaneous); (4) bevacizumab (Avastin®) (5 mg/kg) (twice weekly, intraperitoneal); or (5) CRF (200 μg/kg) (twice daily, subcutaneous) and bevacizumab (Avastin®) (5 mg/kg) (twice weekly, intraperitoneal) (FIG. 13A). Body weight and tumor volume were measured twice a week until the endpoint of the experiment, i.e., the earlier of either 60 days or achieving a tumor weight of 1.5 g.).

malignant brain tumor = experiment: Clinical study: patients with malignant brain tumor, tumor size by MRI and survival; assay type: in vivo, human
Method: Patients with malignant brain tumor were treated with 2 mg/day (1 mg dose, twice daily) of either human CRF subcutaneously. […] Additionally, of the 30 patients who had received treatment for at least 6 months, 10 experienced a decrease in tumor size.

[4] = system: brain tumor in metastatic patients; experiment: Clinical study: metastatic patients, brain tumor size by MRI and survival; assay type: in vivo, human; conditions: 2 mg/day s.c.
[5] = bevacizumab 5 mg/kg twice weekly, intraperitoneal
[6] = CRF 100 or 200 μg/kg twice daily, subcutaneous
[7] = of the 3 metastatic patients of FIG. 10
[8] = low dose of CRF, 30 μg/kg s.c. twice daily

O=NN(CCCl)C(=O)NCCCl [BiCNU, carmustine, reference compound]
brain tumor progression (photon emission) (U87 Fluc brain tumor; BiCNU 20 mg/kg intraperitoneally 5 days/week): continued to grow

Cn1nnc2c(C(N)=O)ncn2c1=O [TMZ, temozolomide, reference compound]
mice still alive at the end of the 80-day study period (U87 Fluc brain tumor; TMZ 40 mg/kg intraperitoneally 5 days/week): 40%

bevacizumab (Avastin®): angiogenesis inhibitor bevacizumab (Avastin®) [reference compound]
tumor volume compared to control [1, 5]: reduction in tumor volume | tumor volume compared to control [2, 5]: reduction in tumor volume | tumor volume compared to control [3, 5]: reduction in tumor volume

corticorelin acetate [CRF]
tumor volume compared to control [1, 6]: reduction in tumor volume | tumor volume compared to control [2, 6]: reduction in tumor volume | survival after CRF treatment, some patients (malignant brain tumor; FIGS. 8 and 9): 1-2 years | patients exhibiting a reduction in tumor size at the last time point measured (malignant brain tumor; of the 10 patients of FIG. 9, 2 mg/day s.c.): 8 patients | patients exhibiting a reduction in tumor size (malignant brain tumor; of the 20 patients of FIG. 8, 2 mg/day (1 mg twice daily) s.c.): 6 patients | patients exhibiting a maintenance in tumor size (malignant brain tumor; of the 20 patients of FIG. 8, 2 mg/day s.c.): 5 patients | patients exhibiting a reduction in tumor size by over 50% (malignant brain tumor; of the 20 patients of FIG. 8, after 9 months of treatment, 2 mg/day s.c.): 3 patients | patients experiencing a decrease in tumor size (malignant brain tumor; of the 30 patients treated for at least 6 months, 2 mg/day s.c.): 10 patients | survival of the overwhelming majority of patients (malignant brain tumor; projected survival 3-6 months, FIGS. 8 and 9): live well beyond the projected 3-6 months | reduction in tumor size (malignant brain tumor; two of the patients, 2 mg/day s.c.): around 90% | tumor volume compared to control [3, 6]: reduction in tumor volume | response of metastatic patients to treatment [4]: responded very favorably | metastatic patients exhibiting survival beyond the projected 3-6 months [4, 7]: 3 patients | metastatic patients showing a reduction in tumor size at the last timepoint measured [4, 7]: 2 patients | brain tumor progression (photon emission) (U87 Fluc brain tumor; [8]): did not progress or progressed more slowly | mean survival time (comparison) (U87 Fluc brain tumor; [8]): between mice, that were administered a high dose of CRF, and mice that had received no treatment or were administered dexamethasone | mice still alive at the end of the 80-day study period (U87 Fluc brain tumor; [8]): 60% | survival compared with untreated, dexamethasone or chemotherapeutic agents (U87 Fluc brain tumor; [8]): survived longer
